According to patent publication US11000033B2, “Ketone or oxime compound, and herbicide” (NISSAN CHEMICAL CORPORATION, priority 2014, dated 2021):

Experiments:
Assay type in all cases: in vivo
Galium spurium [1] = assay: Test Example 5: herbicidal effect by foliage application, plastic box (symbol Q); conditions: 320 g/ha, 3 weeks after application
In short: (§1)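 After sowing into sterilized diluvial soil and growing two weeks under glass at 25° C. to 30° C., seedlings receive a uniform foliar spray of diluted emulsion. Damage is judged visually three weeks on.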

beet [2] = assay: Test Example 5: effect on crop by foliage application, plastic box (symbol f); conditions: 320 g/ha, 3 weeks after application
In short: (§2)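 Crop and weed seeds sown in spots in sterilized diluvial soil in plastic boxes and covered with about 1.5 cm soil. Plants raised in a greenhouse at 25° C. to 30° C. for foliar application.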

beet [3] = assay: Test Example 4: effect on crop by soil treatment (symbol f); conditions: application herbicide amount 320 g/ha
In short: (§3)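 The test used sterilized diluvial soil. Seed was set down in spots and overlaid with about 1.5 cm of soil before growth in a greenhouse kept at 25° C. to 30° C.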

soybean = assay: Test Example 5: effect on crop by foliage application, plastic box (symbol d); conditions: 320 g/ha, 3 weeks after application
In short: as §2

Scirpus juncoides [4] = assay: Test Example 1: herbicidal activity, application before weed generation in submerged conditions (symbol B); conditions: application herbicide amount 320 g/ha
In short: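 Paddy pre-emergence test. Formulated emulsion, water-diluted to a predetermined rate, is applied to floodwater on sowing day; rice transplanted at 2.5 leaves. Effect read at 3 weeks on a 0–5 herbicidal-ratio scale.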

[5] = system: Echinochloa crus-galli var. crus-galli; assay: Test Example 4: herbicidal effect by soil treatment (symbol H); conditions: application herbicide amount 320 g/ha
In short: (§4)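 Seeds were sown in sterilized diluvial soil, covered with about 1.5 cm of soil, and the soil surface was sprayed with a water-diluted emulsion of the compound at a predetermined rate. Plants grew in a greenhouse at 25° C. to 30° C.; effects were scored visually 3 weeks after application.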

Amaranthus retroflexus = assay: Test Example 4: herbicidal effect by soil treatment (symbol N); conditions: application herbicide amount 320 g/ha
In short: as §4

Galium spurium [6] = assay: Test Example 4: herbicidal effect by soil treatment (symbol Q); conditions: application herbicide amount 320 g/ha
In short: as §4

Veronica persica = assay: Test Example 5: herbicidal effect by foliage application, plastic box (symbol R); conditions: 320 g/ha, 3 weeks after application
In short: as §1

Chenopodium album = assay: Test Example 5: herbicidal effect by foliage application, plastic box (symbol O); conditions: 320 g/ha, 3 weeks after application
In short: as §1

rapeseed = assay: Test Example 4: effect on crop by soil treatment (symbol g); conditions: application herbicide amount 320 g/ha
In short: as §3

Avena fatua [7] = assay: Test Example 4: herbicidal effect by soil treatment (symbol I); conditions: application herbicide amount 320 g/ha
In short: as §4

Apera spica-venti = assay: Test Example 5: herbicidal effect by foliage application, plastic box (symbol L); conditions: 320 g/ha, 3 weeks after application
In short: as §1

wheat = assay: Test Example 4: effect on crop by soil treatment (symbol e); conditions: application herbicide amount 320 g/ha
In short: as §3

Avena fatua [8] = assay: Test Example 5: herbicidal effect by foliage application, plastic box (symbol I); conditions: 320 g/ha, 3 weeks after application
In short: as §1

Setaria viridis = assay: Test Example 5: herbicidal effect by foliage application, plastic box (symbol G); conditions: 320 g/ha, 3 weeks after application
In short: as §1

Scirpus juncoides [9] = assay: Test Example 2: herbicidal activity, application during weed generation in submerged conditions (symbol B); conditions: Table 23; application herbicide amount 320 g/ha; grade 0-5 by criteria of Test Example 1
In short: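 Seeds sown in flooded alluvial soil (4 cm water) were grown in a 25-30° C greenhouse. At the one- to two-leaf stage, diluted emulsion of compound was applied to the water surface at a predetermined rate. Effect was scored 3 weeks later.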

SMILES	Q: Galium spurium, herbicidal effect (criteria of Test Example 1) (Galium spurium [1])	f: beet, effect on crop (criteria of Test Example 1) (beet [2])	d: soybean, effect on crop (criteria of Test Example 1) (soybean)	Herbicidal effect grade, B: Scirpus juncoides (Scirpus juncoides [4])	R: Veronica persica, herbicidal effect (criteria of Test Example 1) (Veronica persica)	O: Chenopodium album, herbicidal effect (criteria of Test Example 1) (Chenopodium album)	L: Apera spica-venti, herbicidal effect (criteria of Test Example 1) (Apera spica-venti)	I: Avena fatua, herbicidal effect (criteria of Test Example 1) (Avena fatua [8])	G: Setaria viridis, herbicidal effect (criteria of Test Example 1) (Setaria viridis)	Herbicidal effect grade, B: Scirpus juncoides (Scirpus juncoides [9])	Effect on crop grade, f: beet (beet [3])	Herbicidal effect grade, H: Echinochloa crus-galli var. crus-galli [5]	Herbicidal effect grade, N: Amaranthus retroflexus (Amaranthus retroflexus)	Herbicidal effect grade, Q: Galium spurium (Galium spurium [6])	Effect on crop grade, g: rapeseed (rapeseed)	Herbicidal effect grade, I: Avena fatua (Avena fatua [7])	Effect on crop grade, e: wheat (wheat)	other results
CON=C(C)CC1CC(O)=C(c2c(C)cc(-c3ccc(Cl)cc3F)cc2C)C1=O (stereo not drawn) [6-084]	3 (Herbicidal ratio of 40% or higher and lower than 70%)	0 (Herbicidal ratio of 5% or lower (almost no effect))	5 (Herbicidal ratio of 90% or more (almost completely withered))	3 (Herbicidal ratio of 40% or higher and lower than 70%)	4 (Herbicidal ratio of 70% or higher and lower than 90%)	4 (Herbicidal ratio of 70% or higher and lower than 90%)	5 (Herbicidal ratio of 90% or more (almost completely withered))	5 (Herbicidal ratio of 90% or more (almost completely withered))	5 (Herbicidal ratio of 90% or more (almost completely withered))	3 (Herbicidal ratio of 40% or higher and lower than 70%)								f: beet, effect on crop grade (beet [3]): 0 (Herbicidal ratio of 5% or lower (almost no effect)); H: Echinochloa crus-galli var. crus-galli, herbicidal effect grade [5]: 5 (Herbicidal ratio of 90% or more (almost completely withered)); N: Amaranthus retroflexus, herbicidal effect grade (Amaranthus retroflexus): 4 (Herbicidal ratio of 70% or higher and lower than 90%); Q: Galium spurium, herbicidal effect grade (Galium spurium [6]): 3 (Herbicidal ratio of 40% or higher and lower than 70%); g: rapeseed, effect on crop grade (rapeseed): 1 (Herbicidal ratio of 5% or higher and lower than 20%); I: Avena fatua, herbicidal effect grade (Avena fatua [7]): 5 (Herbicidal ratio of 90% or more (almost completely withered)); e: wheat, effect on crop grade (wheat): 2 (Herbicidal ratio of 20% or higher and lower than 40%)
CON=C(C)CC1CC(O)=C(c2c(C)cc(-c3ccc(F)c(Cl)c3)cc2C)C1=O (stereo not drawn) [6-085]	4 (Herbicidal ratio of 70% or higher and lower than 90%)	4 (Herbicidal ratio of 70% or higher and lower than 90%)	5 (Herbicidal ratio of 90% or more (almost completely withered))	3 (Herbicidal ratio of 40% or higher and lower than 70%)	4 (Herbicidal ratio of 70% or higher and lower than 90%)	5 (Herbicidal ratio of 90% or more (almost completely withered))	5 (Herbicidal ratio of 90% or more (almost completely withered))	5 (Herbicidal ratio of 90% or more (almost completely withered))	5 (Herbicidal ratio of 90% or more (almost completely withered))	4 (Herbicidal ratio of 70% or higher and lower than 90%)	3 (Herbicidal ratio of 40% or higher and lower than 70%)	5 (Herbicidal ratio of 90% or more (almost completely withered))	5 (Herbicidal ratio of 90% or more (almost completely withered))	4 (Herbicidal ratio of 70% or higher and lower than 90%)	4 (Herbicidal ratio of 70% or higher and lower than 90%)	5 (Herbicidal ratio of 90% or more (almost completely withered))	3 (Herbicidal ratio of 40% or higher and lower than 70%)	
CON=C(C)CC1CC(O)=C(c2c(C)cc(-c3ccc(Cl)cc3Cl)cc2C)C1=O (stereo not drawn) [6-088]	4 (Herbicidal ratio of 70% or higher and lower than 90%)	0 (Herbicidal ratio of 5% or lower (almost no effect))	5 (Herbicidal ratio of 90% or more (almost completely withered))	1 (Herbicidal ratio of 5% or higher and lower than 20%)	5 (Herbicidal ratio of 90% or more (almost completely withered))	5 (Herbicidal ratio of 90% or more (almost completely withered))	5 (Herbicidal ratio of 90% or more (almost completely withered))	5 (Herbicidal ratio of 90% or more (almost completely withered))	5 (Herbicidal ratio of 90% or more (almost completely withered))	2 (Herbicidal ratio of 20% or higher and lower than 40%)	0 (Herbicidal ratio of 5% or lower (almost no effect))	5 (Herbicidal ratio of 90% or more (almost completely withered))	0 (Herbicidal ratio of 5% or lower (almost no effect))	4 (Herbicidal ratio of 70% or higher and lower than 90%)	3 (Herbicidal ratio of 40% or higher and lower than 70%)	5 (Herbicidal ratio of 90% or more (almost completely withered))	0 (Herbicidal ratio of 5% or lower (almost no effect))	
CON=C(C)CC1CC(OC(=O)N2CCOCC2)=C(c2c(C)cc(-c3ccc(Cl)cc3F)cc2C)C1=O (stereo not drawn) [6-089]	3 (Herbicidal ratio of 40% or higher and lower than 70%)	0 (Herbicidal ratio of 5% or lower (almost no effect))		3 (Herbicidal ratio of 40% or higher and lower than 70%)	4 (Herbicidal ratio of 70% or higher and lower than 90%)	4 (Herbicidal ratio of 70% or higher and lower than 90%)	5 (Herbicidal ratio of 90% or more (almost completely withered))	5 (Herbicidal ratio of 90% or more (almost completely withered))		2 (Herbicidal ratio of 20% or higher and lower than 40%)	0 (Herbicidal ratio of 5% or lower (almost no effect))	1 (Herbicidal ratio of 5% or higher and lower than 20%)	0 (Herbicidal ratio of 5% or lower (almost no effect))	0 (Herbicidal ratio of 5% or lower (almost no effect))	0 (Herbicidal ratio of 5% or lower (almost no effect))	0 (Herbicidal ratio of 5% or lower (almost no effect))	0 (Herbicidal ratio of 5% or lower (almost no effect))	
